Experimental data published in the NIST ThermoML archive (doi:10.1021/je800012v).

Test: xn = mol fraction of the nth substance listed
Details: Liquid

CCCCCl [1-chlorobutane] + CCCCCC
mass density [kg/m3]
Details | x1 = 0.1099 | x1 = 0.212 | x1 = 0.2925 | x1 = 0.316 | x1 = 0.405 | x1 = 0.4978 | x1 = 0.5975 | x1 = 0.6869 | x1 = 0.8294 | x1 = 0.9025
303.15 K, 15000 kPa | – | – | – | – | – | 763.87 | 786.55 | 807.83 | 843.86 | 863.22
303.15 K, 20000 kPa | 689.49 | 708.98 | 724.92 | 729.73 | 748.24 | 768.43 | 791.14 | 812.44 | 848.41 | 867.82
303.15 K, 25000 kPa | 693.71 | 713.22 | 729.21 | 733.98 | 752.58 | 772.8 | 795.51 | 816.83 | 852.75 | 872.22
303.15 K, 30000 kPa | 697.71 | 717.27 | 733.29 | 738.06 | 756.71 | 776.94 | 799.69 | 821.01 | 856.96 | 876.44
303.15 K, 35000 kPa | 701.46 | 721.06 | 737.11 | 741.91 | 760.56 | 780.82 | 803.62 | 824.94 | 860.94 | 880.41
313.15 K, 100 kPa | 660.25 | 679.39 | 695.16 | 699.82 | 718.21 | 738.18 | 760.7 | 781.81 | 817.54 | 836.89
313.15 K, 2500 kPa | 663.22 | 682.37 | 698.14 | 702.79 | 721.17 | 741.14 | 763.65 | 784.75 | 820.43 | 839.76
313.15 K, 5000 kPa | 666.15 | 685.31 | 701.06 | 705.74 | 724.11 | 744.08 | 766.58 | 787.66 | 823.33 | 842.65
313.15 K, 10000 kPa | 671.67 | 690.86 | 706.6 | 711.27 | 729.65 | 749.65 | 772.1 | 793.2 | 828.82 | 848.11
313.15 K, 15000 kPa | 676.77 | 695.99 | 711.76 | 716.43 | 734.82 | 754.83 | 777.29 | 798.39 | 833.99 | 853.27
313.15 K, 20000 kPa | 681.54 | 700.78 | 716.6 | 721.27 | 739.68 | 759.7 | 782.18 | 803.3 | 838.9 | 858.17
313.15 K, 25000 kPa | 686.03 | 705.32 | 721.16 | 725.85 | 744.28 | 764.34 | 786.8 | 807.96 | 843.57 | 862.84
313.15 K, 30000 kPa | 690.26 | 709.59 | 725.44 | 730.12 | 748.61 | 768.68 | 791.2 | 812.36 | 847.97 | 867.27
313.15 K, 35000 kPa | 694.28 | 713.66 | 729.55 | 734.28 | 752.76 | 772.87 | 795.4 | 816.59 | 852.24 | 871.55
323.15 K, 100 kPa | 650.68 | 669.65 | 685.16 | 689.81 | 708 | 727.88 | 750.16 | 771.11 | 806.56 | 825.76
323.15 K, 2500 kPa | 653.88 | 672.84 | 688.38 | 693.01 | 711.21 | 730.97 | 753.32 | 774.25 | 809.67 | 828.84
323.15 K, 5000 kPa | 657.08 | 676.07 | 691.59 | 696.23 | 714.41 | 734.25 | 756.52 | 777.43 | 812.8 | 831.94
323.15 K, 10000 kPa | 663.04 | 682.03 | 697.57 | 702.21 | 720.41 | 740.23 | 762.49 | 783.36 | 818.69 | 837.82
323.15 K, 15000 kPa | 668.53 | 687.54 | 703.11 | 707.76 | 725.96 | 745.81 | 768.07 | 788.94 | 824.21 | 843.35
323.15 K, 20000 kPa | 673.62 | 692.66 | 708.23 | 712.92 | 731.15 | 751.01 | 773.25 | 794.16 | 829.43 | 848.55
323.15 K, 25000 kPa | 678.38 | 697.47 | 713.06 | 717.75 | 736.01 | 755.88 | 778.17 | 799.07 | 834.36 | 853.47
323.15 K, 30000 kPa | 682.82 | 701.95 | 717.58 | 722.3 | 740.59 | 760.48 | 782.79 | 803.7 | 839.01 | 858.16
323.15 K, 35000 kPa | 687.05 | 706.22 | 721.89 | 726.62 | 744.94 | 764.87 | 787.22 | 808.14 | 843.47 | 862.63
333.15 K, 100 kPa | 640.84 | 659.59 | 674.97 | 679.61 | 697.62 | 717.27 | 739.37 | 760.13 | 795.31 | 814.35
333.15 K, 2500 kPa | 644.37 | 663.28 | 678.48 | 683.13 | 701.13 | 720.76 | 742.8 | 763.57 | 798.68 | 817.7
333.15 K, 5000 kPa | 647.85 | 666.6 | 681.96 | 686.6 | 704.59 | 724.22 | 746.27 | 766.97 | 802.05 | 821.05
333.15 K, 10000 kPa | 654.25 | 673.04 | 688.41 | 693.04 | 711.02 | 730.64 | 752.68 | 773.35 | 808.4 | 827.36
333.15 K, 15000 kPa | 660.12 | 678.96 | 694.34 | 698.97 | 716.97 | 736.59 | 758.64 | 779.29 | 814.33 | 833.22
333.15 K, 20000 kPa | 665.54 | 684.42 | 699.82 | 704.46 | 722.46 | 742.1 | 764.16 | 784.83 | 819.85 | 838.75
333.15 K, 25000 kPa | 670.56 | 689.51 | 704.94 | 709.59 | 727.62 | 747.28 | 769.35 | 790.03 | 825.07 | 843.95
333.15 K, 30000 kPa | 675.27 | 694.27 | 709.73 | 714.38 | 732.45 | 752.13 | 774.27 | 794.94 | 830 | 848.89
333.15 K, 35000 kPa | 679.71 | 698.78 | 714.25 | 718.92 | 737.02 | 756.72 | 778.9 | 799.6 | 834.7 | 853.59
